Data set [1] can be described thus: Stability in mouse plasma. The data set is classed as in vitro ADME. The conditions noted are these: read-out: Stability in mouse plasma, t1/2. An excerpt: (§1) Plasma protein binding, and stability in human and mouse plasma have been tested as previously described.
Data set [2] concerns primary human hepatocytes (PHH). Briefly: RT-qPCR mRNA expression in 2D primary human hepatocytes.
Source text: The cells were cultivated as 2D monolayers according to the manufacturer’s protocol.
(§3) RT-qPCR was used to examine gene expression in 2D and 3D PHH, HepaRG cells, or in mouse liver or intestine (ileum) samples as we have described before[60]–[62].
Data set [3] can be described thus: Metabolic stability in human liver S9 fraction. Conditions: human, liver S9 fraction. As for the experimental part:
(§2) Shimadzu HPLC system including vacuum degasser, gradient pumps, reverse phase HPLC column, column oven, and autosampler with an API 4000 QTRAP mass spectrometer (Applied Biosystems/MDS Sciex (AB Sciex) with Turbo V ion source and TurboIonspray interface were used. The reference compound midazolam, which is metabolized both by phase I and phase II enzymes, was used. The elimination constant (kel), half-life (t1/2), and intrinsic clearance (Clint) were determined[19] (Table S1).
Supplementary Figure 1. […] Test compounds (1 μM, final DMSO concentration 1%) were incubated at 37 °C with shaking at 100 rpm. Four time points over 120 minutes have been analyzed. The reactions were stopped by adding 420 μL of acetonitrile-water mixture (90:10). Supernatants were analyzed by the HPLC system coupled with a tandem mass spectrometer. The percentage (in % of initial concertation) of the test compounds remaining after incubation in plasma and their half-lives (t1/2) were calculated. […] The stability of the compound was tested in human liver S9 fraction. Cofactors were used such as UDPGA (for glucuronidation), PAPS (for sulfation), and reduced glutathione (for conjugation of GSH). Compounds were tested in triplicate with or without NADPH. Propantheline and midazolam were used as unstable control compounds in the experiments. Data represent the means±S.D. from at least three independent samples.

Data set [4] deals with T1, human CAR variant 3 (Homo sapiens, UniProt Q14994, DEL233-236).
T1 construct: host or cells: HepG2
T1 sequence (Q14994 with tags, fused parts or gaps isoform Q14994-8 DEL233-236): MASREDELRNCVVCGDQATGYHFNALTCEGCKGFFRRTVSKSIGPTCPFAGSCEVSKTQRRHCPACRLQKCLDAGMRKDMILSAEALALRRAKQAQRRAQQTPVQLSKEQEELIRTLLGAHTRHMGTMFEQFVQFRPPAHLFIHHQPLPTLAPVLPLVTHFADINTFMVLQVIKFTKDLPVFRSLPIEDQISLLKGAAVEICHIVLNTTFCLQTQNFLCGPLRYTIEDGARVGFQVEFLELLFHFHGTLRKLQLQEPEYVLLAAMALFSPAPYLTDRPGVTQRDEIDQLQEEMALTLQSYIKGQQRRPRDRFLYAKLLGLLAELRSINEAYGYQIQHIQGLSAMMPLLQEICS
T1 sequence (P19793 1-462 partner): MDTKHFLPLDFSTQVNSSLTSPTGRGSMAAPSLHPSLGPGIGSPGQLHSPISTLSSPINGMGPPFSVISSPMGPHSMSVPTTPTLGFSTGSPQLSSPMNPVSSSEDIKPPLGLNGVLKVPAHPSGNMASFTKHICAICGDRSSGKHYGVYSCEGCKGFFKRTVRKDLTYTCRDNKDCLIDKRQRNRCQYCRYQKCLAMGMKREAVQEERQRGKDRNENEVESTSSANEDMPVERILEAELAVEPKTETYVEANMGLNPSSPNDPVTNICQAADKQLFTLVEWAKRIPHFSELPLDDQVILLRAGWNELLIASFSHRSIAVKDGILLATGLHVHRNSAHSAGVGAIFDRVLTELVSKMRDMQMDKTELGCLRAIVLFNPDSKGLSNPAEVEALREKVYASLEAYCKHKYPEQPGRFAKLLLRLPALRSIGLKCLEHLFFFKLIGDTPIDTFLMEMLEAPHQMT
Briefly: CAR3 luciferase reporter assay (CYP2B6-luc) in HepG2 cells. Type of data set: cell-based. The protocol: CAR3 luciferase reporter assay (with CYP2B6-luc) was performed in human hepatocellular carcinoma HepG2 cells as we described[19] For the CAR3 assay (Fig. 1d), a CYP2B6-luc reporter plasmid (originally entitled B-1.6k/PB/XREM) was kindly donated by Dr. Hongbing Wang (University of Maryland School of Pharmacy, Baltimore, MD, USA). All expression vectors are described in Supplementary, Chapter 4).
Cells were treated for 24 h with MI-883 in a range of concentration from 0.1 nM to 30 µM (n = 3). The half maximal effective concentration (EC50) to activate CAR or inhibit PXR (IC50) in the assays was calculated from at least eight points of the dose-response curves using the GraphPad Prism software.

In data set [5] the test system is humanized PXR-CAR-CYP3A4/3A7 mice. Briefly: Hepatic induction study in humanized PXR-CAR-CYP3A4/3A7 mice (i.p.). Type of data set: in vivo, mouse. Conditions: single agents i.p.: Rif 3×5 mg/kg, CITCO 10 mg/kg two doses, MI-883 10 mg/kg 3 days. An excerpt: In the induction experiments, […] was sampled from the gallbladder.
Data set [6] has as its system HepaRG KO CAR cells. Briefly: RT-qPCR mRNA expression in HepaRG KO CAR cells. The data set is classed as cell-based, human. Conditions: Phenobarbital 500 μM, CITCO 1 μM, MI 883 1 μM; ctrl = 1.
Source text: (§4) HepaRG cells from Biopredic (Rennes, France) were cultivated and differentiated on the 12-well plates. […] Several batches of HepaRG KO CAR (CAR Knockout HepaRG™ Cells, MTOX1012-1VL, RRID:CVCL_B6AA) and PXR Knockout HepaRG™ Cells, MTOX1011-1VL, RRID:CVCL_B6AS) cells have been obtained from Sigma-Aldrich/Merck (Darmstadt, Germany) and cultivated according to the provider’s protocols. […] Experiments with HepaRG KO PXR and HepaRG KO CAR cells have been performed in duplicates at least in two independent experiments.
as §3
(§5) All qRT-qPCR experiments including Trizol reagent (Life Technologies) total RNA isolation, reverse-transcription using a random hexaprimer, and the MMLV Reverse Transcriptase Kit (ThermoFisher Scientific) we have described before^19. qPCR was performed using TaqMan Fast Advanced Master Mix with TaqMan probes (ThermoFisher Scientific). […] The delta-delta method was used for gene expression quantification normalized to at least two reference genes. Three technical replicates were used for each reaction considering the MIQE guidelines. Data are presented as fold induction to vehicle-treated cells/animals.
Data set [7] can be described thus: Mouse plasma protein binding. The data set is classed as in vitro ADME.
Source text: as §1

Data set [8] can be described thus: Metabolic stability in mouse liver S9 fraction. The conditions noted are these: male, CD-1, mouse, liver S9 fraction. The protocol: as §2
Data set [9] deals with HepaRG cells. In words: RT-qPCR mRNA expression in differentiated HepaRG cells. Conditions: Phenobarbital 500 μM, CITCO 1 μM, MI 883 1 μM; ctrl = 1.
Source text: as §4, §3, §5
Data set [10] has as its target T2, human CAR ligand-binding domain (LBD) (Homo sapiens, UniProt Q14994).
T2 construct: purchased ThermoFisher Scientific PV4836
Briefly: TR-FRET CAR coactivator assay (LanthaScreen). Type of data set: biochemical.

Data set [11] addresses GRα (Homo sapiens, UniProt P04150). In words: Luciferase reporter gene assay GRα, HepG2. The conditions noted are these: ligand: Dexamethasone 100 nM.
Source text: Gal4-LBD constructs of tested nuclear receptors have been used together with pGL4.31[luc2P/GAL4UAS/Hygro] luciferase reporter construct and pRL-TK Renilla expression vector (both from Promega, Hercules, USA) in HepG2 cells transfected with Lipofectamine 2000 or 3000 reagents. For GRα and FXR receptors, full-length expression vectors have been used with pGRE-luc or pFXRE-luc luciferase constructs. For the aryl hydrocarbon receptor (AhR), p1A1-luc construct was used with only pRL-TK vector for transfection normalization. A dual reporter assay (Promega, Hercules, USA) was used to analyze both firefly and Renilla luciferase activities.
Gal4-LBD constructs of tested nuclear receptors have been used together with pGL5-luc luciferase reporter construct and pRL-TK Renilla expression vector in HepG2 cells transfected with Lipofectamine 2000 or 3000 reagents. For GRα and FXR receptors, full-length expression vectors have been used with pGRE-luc or pFXRE-luc luciferase constructs. For the aryl hydrocarbon receptor (AhR), p1A1-luc construct was used with only pRL-TK vector for transfection normalization. […] Bars represent means±S.D. (n=3).
Setting [12] is: single agent 5 μM: MI-883, CITCO (5 μM) alone.

Several values for one entry are separate records, joined by “and”; a condition that tells them apart may be missing. Equal entries are not always repeated. A value given as a limit tells only on which side of the number the result lay.

Chain of GRα (P04150 whole entry): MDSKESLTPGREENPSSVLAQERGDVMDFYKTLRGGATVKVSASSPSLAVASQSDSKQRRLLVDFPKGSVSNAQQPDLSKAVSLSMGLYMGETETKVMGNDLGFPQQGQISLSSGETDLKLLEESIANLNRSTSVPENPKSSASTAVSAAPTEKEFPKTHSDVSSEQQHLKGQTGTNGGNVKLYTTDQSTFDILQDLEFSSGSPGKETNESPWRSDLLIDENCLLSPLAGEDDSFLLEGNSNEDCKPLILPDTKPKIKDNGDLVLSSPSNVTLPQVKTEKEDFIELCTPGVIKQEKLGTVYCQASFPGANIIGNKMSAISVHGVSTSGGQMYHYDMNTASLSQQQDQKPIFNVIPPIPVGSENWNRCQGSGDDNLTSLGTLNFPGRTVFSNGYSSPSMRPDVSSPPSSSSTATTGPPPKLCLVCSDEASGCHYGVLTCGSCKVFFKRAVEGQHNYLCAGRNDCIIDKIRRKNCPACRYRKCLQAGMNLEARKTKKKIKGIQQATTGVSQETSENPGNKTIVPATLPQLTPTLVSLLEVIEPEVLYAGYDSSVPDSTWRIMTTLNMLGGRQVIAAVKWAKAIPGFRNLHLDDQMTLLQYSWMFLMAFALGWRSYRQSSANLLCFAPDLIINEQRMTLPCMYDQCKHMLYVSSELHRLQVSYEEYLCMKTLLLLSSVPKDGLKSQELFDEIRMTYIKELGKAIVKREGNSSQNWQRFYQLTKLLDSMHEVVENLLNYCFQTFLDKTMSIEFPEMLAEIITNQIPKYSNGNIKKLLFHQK
T2 sequence (Q14994 109-348 isoform Q14994-2 limits assumed, other chains not shown): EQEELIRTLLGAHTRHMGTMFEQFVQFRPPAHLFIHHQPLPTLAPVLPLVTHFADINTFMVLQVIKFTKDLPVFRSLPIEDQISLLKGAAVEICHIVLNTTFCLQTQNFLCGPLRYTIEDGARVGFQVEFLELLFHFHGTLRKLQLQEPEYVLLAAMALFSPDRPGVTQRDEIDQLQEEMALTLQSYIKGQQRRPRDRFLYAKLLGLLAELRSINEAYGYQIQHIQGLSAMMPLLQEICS

Take `Clc1ccc(-c2nc3sccn3c2C=NOCc2ccc(Cl)c(Cl)c2)cc1` [CITCO, 6-(4-chlorophenyl)imidazo[2,1-b][1,3]thiazole-5-carbaldehyde-O-(3,4-dichlorobenzyl)oxime, reference compound]: the half-life is above 120 min in [1] and 39.2 min in [8]. The “CYP2B6 mRNA, RT-qPCR, PHH (Fig. 1g), replicates” value in data set [2] (1 mM, ctrl = 1) was 10.10 and 18.10 and 7.00. In addition, in data set [2] (setting [12]), the “CYP2B6 mRNA in PHH 2 donors (Fig. 3c)” value was 11.1246 and 12.1237. Also, the “CYP3A4 mRNA in PHH 2 donors (Fig. 3c)” value in data set [2] (setting [12]) is 2.55 and 3.999. Moreover, in data set [3], the half-life at 2 µM came out at 22.5 min. In data set [3], this compound gave a microsomal CLint at 2 µM of 15 µL/min/mg. The “CAR3 variant activation (Fig. 1d), replicates” value was 0.85 and 0.95 and 1.03 in data set [4] (concentration 0.01 (unit not given), HepG2, 24 h); 0.4 and 1 and 3.5 in data set [4] (concentration 0.1 (unit not given)); 1.25 and 6.4 and 1.2 in [4] (concentration 1 (unit not given)); 10 and 12.8 and 12 in [4] (concentration 10 (unit not given)); 20.7 and 11.1 and 15.3 in data set [4] (concentration 30 (unit not given)). Moreover, the “hepatic CYP3A4 mRNA, hPXR/hCAR/CYP3A4/7 mice (Fig. 3e), individual animals” value in data set [5] was 3.5706 and 5.153 and 1.198 and 3.457. Further, the “hepatic Cyp2b10 mRNA, hPXR/hCAR/CYP3A4/7 mice (Fig. 3e), individual animals” value in data set [5] was 6.356 and 6.521 and 7.777 and 9.457. Further, the “CYP2B6 mRNA, RT-qPCR, HepaRG KO CAR (Fig. 1f), replicates” value in data set [6] was 1.15 and 1.05 and 0.84. Also, the fraction unbound in data set [7] is 0.02. Further, the microsomal CLint in data set [8] turned out to be 9 µL/min/mg. For the same compound, the “CYP2B6 mRNA, RT-qPCR, HepaRG (Fig. 1f), replicates” value in [9] is 6.95 and 5.3 and 5.5. Further, the “TR-FRET CAR Coactivator assay, mean signal (Fig. 1b)” value in data set [10] (100pM) was 1; in data set [10] (1nM), 1.176; in data set [10] (10nM) it was 1.375; in data set [10] (30nM) it was 1.960; in data set [10] (100nM) it was 2.115; in [10] (0.5μM), 2.111. Moreover, the results for the “TR-FRET CAR Coactivator assay, mean signal (Fig. 1b)” value in data set [10] (1 μM), in [10] (10 μM) and in data set [10] (30 μM) were 2.154, 2.134 and 2.146, respectively.

For `C[C@@H]1C[C@H]2[C@@H]3CCC4=CC(=O)C=C[C@]4(C)[C@@]3(F)[C@@H](O)C[C@]2(C)[C@@]1(O)C(=O)CO` [Dexamethasone], the “NRs assays: GRa (relative to ctrl, replicates)” value in data set [11] is 19.01 and 18.01 and 16.69.

These data come from PMC11802874, “The hypolipidemic effect of MI-883, the combined CAR agonist/ PXR antagonist, in diet-induced hypercholesterolemia model” (Nature Communications, 2025).
